From paper PMC11979947, “Modeling Krebs cycle from liver, heart and hepatoma mitochondria, supported Complex I as target for specific inhibition of cancer cell proliferation” (Frontiers in Oncology, 2025)
Like-named read-outs stand apart in the source and are kept apart here.

Key:
[1] = test system: PC3 prostate cancer cells; test: MTT cell proliferation assay, PC3; assay type: cell-based, human; details: read-out: IC50 on proliferation
Description: (§1) Human cervix cancer HeLa and SiHa, human prostate cancer PC3, human colon cancer colo-205, and rat heart myoblast H9c2 cells (CRL-1446, ATCC, Manassas, VA, USA) were cultured in DMEM medium, while human breast cancer MCF7 cells were cultivated in MEM medium. Human breast epithelial MCF-10A cells (CRL-10317, ATCC, Manassas, VA, USA) were cultivated in F-12/DMEM medium. All media were supplemented with 25 mM glucose, 10% fetal bovine serum (Biowest, Riverside, MO, USA) and 10,000 U streptomycin/penicillin/mL under an atmosphere of 5% CO2 and 95% air at 37°C until 80-90% confluence.
(§2) The cell lines (20 × 10^3 cells/well) were grown in 96-well plates containing Dulbecco’s Modified Eagle’s Medium (DMEM) (Sigma-Aldrich, St Louis, MO, USA) for 24 h. Afterward, the cells were exposed to rotenone (1 nM to 50 µM) or malonate (0.1µM to 100 mM) for 24 h. Drug effects on cell proliferation were determined by using the 3-(4,5-dimethyl-thiazol-2-yl)-2,5-diphenyltetrazolium bromide (MTT) (Sigma-Aldrich, St Louis, MO, USA) assay. Plates were incubated at 37°C for 3 h; after, the medium was discarded, and the formazan crystals were dissolved with 100 µL DMSO. After 5 min incubation at 37°C, the absorbance was measured at λ 595 nm ([34]).

[2] = test system: MCF10A breast non-cancer cells; test: MTT cell proliferation assay, MCF10A; assay type: cell-based, human; details: for IC50: read-out: IC50 on proliferation
Description: as §1, §2

[3] = test system: HeLa cervix cancer cells; test: MTT cell proliferation assay, HeLa; assay type: cell-based, human; details: read-out: IC50 on proliferation
Description: as §1, §2

[4] = test system: H9c2 heart myoblast cells; test: MTT cell proliferation assay, H9c2; assay type: cell-based, rat; details: read-out: IC50 on proliferation
Description: as §1, §2

[5] = test system: SiHa cervix cancer cells; test: MTT cell proliferation assay, SiHa; assay type: cell-based; details: Homo sapiens, 24 h, read-out: IC50 on proliferation
Description: as §1, §2

[6] = test system: COLO-205 colon cancer cells; test: MTT cell proliferation assay, COLO-205; assay type: cell-based, human; details: read-out: IC50 on proliferation
Description: as §1, §2

[7] = test system: MCF7 breast cancer cells; test: MTT cell proliferation assay, MCF7; assay type: cell-based, human; details: read-out: IC50 on proliferation
Description: as §1, §2

Compound: C=C(C)[C@H]1Cc2c(ccc3c2O[C@@H]2COc4cc(OC)c(OC)cc4[C@@H]2C3=O)O1 [Rotenone, rotenone]
- IC50 ([1]; Homo sapiens, 24 h): 13 ± 1 µM
- IC50 ([2]; Homo sapiens, MCF-10A, 24 h): > 50 µM
- Effect on proliferation ([2]; MCF10A, 50 µM, 24 h of treatment): not affected
- IC50 ([3]; Homo sapiens, 24 h): 17 ± 5 µM
- IC50 ([4]; Rattus norvegicus, H9c2, 24 h): 34 ± 10 µM
- IC50 [5]: 18 ± 3 µM
- IC50 ([6]; Homo sapiens, COLO 205, 24 h): 37 ± 9 µM
- IC50 ([7]; Homo sapiens, MCF7, 24 h): 0.15 ± 0.09 µM

Compound: O=C(O)CC(=O)O [Malonate, malonate]
- IC50 ([1]; PC3, 24 h treatment, MTT): 40000 ± 2000 µM
- IC50 ([2]; MCF10A, 24 h treatment, MTT): 43000 ± 9000 µM
- IC50 ([3]; 24 h treatment, MTT): 27000 ± 5000 µM
- IC50 ([4]; H9c2, 24 h treatment, MTT): 25000 ± 5000 µM
- IC50 ([6]; COLO-205, 24 h treatment, MTT): 32000 ± 3000 µM
- IC50 ([7]; MCF7, 24 h treatment, MTT): 41000 ± 1000 µM
